Results: patent US20160219881A1, “HERBICIDALLY ACTIVE 2-HALOGEN-4-ALKYNYL-PHENYL-PYRAZOLIDINE-DIONE OR PYRROLIDINE-DIONE DERIVATIVES” (SYNGENTA LIMITED, priority 2013, published 2016)

Legend:
Assay type in all cases: in vivo
[1] = test system: Echinochloa crus-galli (ECHCG); assay: Test 1A glasshouse assay, pre-emergence herbicidal activity; details: 312 h, 250 g/ha, 13 days after application, read-out: Pre-Emergence Herbicidal Activity (% Phytotoxicity) ECHCG
Procedure: Seeds of a variety of test species are sown in standard soil (usually sandy soil) in pots. After cultivation for one day (pre-emergence) or after 8 days cultivation (post-emergence) under controlled conditions in a glasshouse (at 24/16° C., day/night; 14 hours light; 65% humidity), the plants are sprayed with an aqueous spray solution derived from the formulation of the technical active ingredient (compound) in acetone/water (50:50) solution containing 0.5% Tween 20 (polyoxyethylene sorbitan monolaurate, CAS RN 9005-64-5). The test plants are then grown under controlled conditions in a glasshouse (at 24/16° C., day/night; 14 hours light; 65% humidity) and watered twice daily. 13 days after application of the test compounds, for pre- and post-emergence, the test is evaluated visually for percentage phytotoxicity to each plant (where 100%=total damage to plant; 0%=no damage to plant).
Alopecurus myosuroides (ALOMY), Setaria faberi (SETFA), Echinochloa crus-galli (ECHCG), Amaranthus retroflexus (AMARE), and Abutilon theophasti Medik. (ABUTH, common English name “velvetleaf”). Of these, Alopecurus myosuroides (ALOMY), Setaria faberi (SETFA), and Echinochloa crus-galli (ECHCG) are grassy monocotyledonous weeds. […]

[2] = test system: Brachiaria plantaginea (BRAPL); assay: Biological Example 3 (Test 2 glasshouse assay), post-emergence herbicidal activity
Procedure: (§1) Seeds of a variety of monocotyledonous and dicotyledonous test plants are sown in standard soil in pots. The plants are cultivated for one day (for pre-emergence) or for about 12 days (range=10-13 days) (for post-emergence) under controlled conditions in a glasshouse (warm climate species at 24/18° C., cool climate species at 20/16° C., both at day/night; 16 hours light; 65% humidity).
(§2) An “instant formulation”, known as the “IF50”, containing 50 g/litre (i.e. 5% w/v) of the “technical” (i.e. unformulated) active ingredient is prepared by dissolving the active ingredient in a mixture of organic solvents and emulsifier, details of which are provided in the Table below. This IF50 is then mixed with a small, variable amount of acetone to aid dissolution, before addition of a 0.2% v/v aqueous solution of the adjuvant X-77 (which is a mixture of alkyl aryl polyoxyethylene glycols and free fatty acids in isopropanol, CAS Registry number 11097-66-8), as the aqueous diluent, to form an aqueous spray solution which contains a predetermined concentration of the active ingredient (which varies depending on the application rate of the active ingredient to the plants) and 0.2% v/v of the adjuvant X-77. This aqueous spray solution is then sprayed onto the plants, after one day's cultivation (for pre-emergence) or after about 12 days' cultivation (for post-emergence).
(§3) The test plants are then grown on, in a glasshouse (greenhouse) under controlled conditions (at either 24/18° C. or 20/16° C. (day/night) as mentioned above; 16 hours light; 65% humidity) and are watered twice daily. Either 15 days after application of the test compound (15 DAA) (for post-emergence), or 20 days after application of the test compound (20 DAA) (for pre-emergence), the test plants are evaluated visually, and an assessed percentage phytotoxicity score is given for each compound application on each plant species (where 100%=total damage to plant; 0%=no damage to plant).
(§4) Cool climate crop plants: Triticum aestivum (TRZAW, winter wheat), Brassica napus (BRSNN, rape, also called oilseed rape or rapeseed), Beta vulgaris (BEAVA, sugar beet). Warm climate crop plants: Glycine max (GLXMA, soybean). Cool climate (“cool season”) grassy monocotyledonous weeds: Alopecurus myosuroides (ALOMY), Avena fatua (AVEFA), Lolium perenne (LOLPE). Warm climate (“warm season”) grassy monocotyledonous weeds: Setaria faberi (SETFA), SORVU (Sorghum bicolor (L.) Moench ssp. Bicolor, or Sorghum vulgare Pers.), Digitaria sanguinalis (DIGSA), Echinochloa crus-galli (ECHCG), and Brachiaria plantaginea (BRAPL).

[3] = test system: Brassica napus (BRSNN, rape); assay: as above
Procedure: as §1, §2, §3, §4

[4] = test system: Alopecurus myosuroides (ALOMY); assay: as above
Procedure: as §1, §2, §3, §4

[5] = test system: Echinochloa crus-galli (ECHCG); assay: as above
Procedure: as §1, §2, §3, §4

[6] = test system: Lolium perenne (LOLPE); assay: as above
Procedure: as §1, §2, §3, §4

[7] = test system: Setaria faberi (SETFA); assay: as above
Procedure: as §1, §2, §3, §4

[8] = test system: Triticum aestivum (TRZAW, winter wheat); assay: as above
Procedure: as §1, §2, §3, §4

[9] = test system: SORVU (Sorghum bicolor (L.) Moench ssp. Bicolor, or Sorghum vulgare Pers.); assay: as above
Procedure: as §1, §2, §3, §4

[10] = test system: Digitaria sanguinalis (DIGSA); assay: as above
Procedure: as §1, §2, §3, §4

[11] = test system: Beta vulgaris (BEAVA, sugar beet); assay: as above
Procedure: as §1, §2, §3, §4

[12] = test system: Glycine max (GLXMA, soybean); assay: as above
Procedure: as §1, §2, §3, §4

Row | Structure (SMILES) | inhibition at 250 g/ha [1] [%] | Post-Emergence Herbicidal Activity (Percentage Phytotoxicity) BRAPL ([2]; 8 g/ha (rate by row order)) [%] | Post-Emergence Herbicidal Activity (Percentage Phytotoxicity) BRAPL ([2]; 30 g/ha (rate by row order)) [%] | Post-Emergence Herbicidal Activity (Percentage Phytotoxicity) BRAPL ([2]; 125 g/ha (rate by row order)) [%] | Post-Emergence Herbicidal Activity (Percentage Phytotoxicity) BRSNN ([3]; 8 g/ha) [%] | Post-Emergence Herbicidal Activity (Percentage Phytotoxicity) BRSNN ([3]; 30 g/ha) [%] | Post-Emergence Herbicidal Activity (Percentage Phytotoxicity) BRSNN ([3]; 125 g/ha) [%] | Post-Emergence Herbicidal Activity (Percentage Phytotoxicity) ALOMY ([4]; 8 g/ha) [%] | Post-Emergence Herbicidal Activity (Percentage Phytotoxicity) ALOMY ([4]; 30 g/ha) [%] | Post-Emergence Herbicidal Activity (Percentage Phytotoxicity) ALOMY ([4]; 125 g/ha) [%] | Post-Emergence Herbicidal Activity (Percentage Phytotoxicity) ECHCG ([5]; 8 g/ha (rate by row order)) [%] | Post-Emergence Herbicidal Activity (Percentage Phytotoxicity) ECHCG ([5]; 30 g/ha (rate by row order)) [%] | Post-Emergence Herbicidal Activity (Percentage Phytotoxicity) ECHCG ([5]; 125 g/ha (rate by row order)) [%] | Post-Emergence Herbicidal Activity (Percentage Phytotoxicity) LOLPE ([6]; 8 g/ha) [%] | Post-Emergence Herbicidal Activity (Percentage Phytotoxicity) LOLPE ([6]; 30 g/ha) [%] | Post-Emergence Herbicidal Activity (Percentage Phytotoxicity) LOLPE ([6]; 125 g/ha) [%] | Post-Emergence Herbicidal Activity (Percentage Phytotoxicity) SETFA ([7]; 8 g/ha (rate by row order)) [%] | Post-Emergence Herbicidal Activity (Percentage Phytotoxicity) SETFA ([7]; 30 g/ha (rate by row order)) [%] | Post-Emergence Herbicidal Activity (Percentage Phytotoxicity) SETFA ([7]; 125 g/ha (rate by row order)) [%] | Post-Emergence Herbicidal Activity (Percentage Phytotoxicity) TRZAW ([8]; 8 g/ha) [%] | further results
1 | CC#Cc1cc(C)c(-c2c(OC(=O)C(C)(C)C)n(C)n(C)c2=O)c(C)c1 [Compound P1] | 100 | 60 | 70 | 100 | 0 | 80 | 80 | 40 | 60 | 70 | 20 | 70 | 100 | 30 | 50 | 80 | 20 | 90 | 100 | 0 | Post-Emergence Herbicidal Activity (Percentage Phytotoxicity) TRZAW ([8]; 30 g/ha): 0%; Post-Emergence Herbicidal Activity (Percentage Phytotoxicity) TRZAW ([8]; 125 g/ha): 70%; Post-Emergence Herbicidal Activity (Percentage Phytotoxicity) SORVU ([9]; 8 g/ha (rate by row order)): 50%; Post-Emergence Herbicidal Activity (Percentage Phytotoxicity) SORVU ([9]; 30 g/ha (rate by row order)): 60%; Post-Emergence Herbicidal Activity (Percentage Phytotoxicity) SORVU ([9]; 125 g/ha (rate by row order)): 80%; Post-Emergence Herbicidal Activity (Percentage Phytotoxicity) DIGSA ([10]; 8 g/ha (rate by row order)): 80%; Post-Emergence Herbicidal Activity (Percentage Phytotoxicity) DIGSA ([10]; 30 g/ha (rate by row order)): 90%; Post-Emergence Herbicidal Activity (Percentage Phytotoxicity) DIGSA ([10]; 125 g/ha (rate by row order)): 100%; Post-Emergence Herbicidal Activity (Percentage Phytotoxicity) BEAVA ([11]; 8 g/ha): 30%; Post-Emergence Herbicidal Activity (Percentage Phytotoxicity) BEAVA ([11]; 30 g/ha): 10%; Post-Emergence Herbicidal Activity (Percentage Phytotoxicity) BEAVA ([11]; 125 g/ha): 40%; Post-Emergence Herbicidal Activity (Percentage Phytotoxicity) GLXMA ([12]; 8 g/ha): 10%; Post-Emergence Herbicidal Activity (Percentage Phytotoxicity) GLXMA ([12]; 30 g/ha): 30%; Post-Emergence Herbicidal Activity (Percentage Phytotoxicity) GLXMA ([12]; 125 g/ha): 40%
2 | CC#Cc1cc(C)c(-c2c(OC(=O)C(C)(C)C)n3n(c2=O)CCOCC3)c(C)c1 [Compound P4] | 100 | 90 | 90 | 100 | 70 | 80 | 80 | 20 | 60 | 70 | 60 | 90 | 100 | 30 | 40 | 50 | 70 | 80 | 90 | 10 | Post-Emergence Herbicidal Activity (Percentage Phytotoxicity) TRZAW ([8]; 30 g/ha): 40%; Post-Emergence Herbicidal Activity (Percentage Phytotoxicity) TRZAW ([8]; 125 g/ha): 80%; Post-Emergence Herbicidal Activity (Percentage Phytotoxicity) SORVU ([9]; 8 g/ha (rate by row order)): 70%; Post-Emergence Herbicidal Activity (Percentage Phytotoxicity) SORVU ([9]; 30 g/ha (rate by row order)): 80%; Post-Emergence Herbicidal Activity (Percentage Phytotoxicity) SORVU ([9]; 125 g/ha (rate by row order)): 100%; Post-Emergence Herbicidal Activity (Percentage Phytotoxicity) DIGSA ([10]; 8 g/ha (rate by row order)): 80%; Post-Emergence Herbicidal Activity (Percentage Phytotoxicity) DIGSA ([10]; 30 g/ha (rate by row order)): 90%; Post-Emergence Herbicidal Activity (Percentage Phytotoxicity) DIGSA ([10]; 125 g/ha (rate by row order)): 90%; Post-Emergence Herbicidal Activity (Percentage Phytotoxicity) BEAVA ([11]; 8 g/ha): 30%; Post-Emergence Herbicidal Activity (Percentage Phytotoxicity) BEAVA ([11]; 30 g/ha): 40%; Post-Emergence Herbicidal Activity (Percentage Phytotoxicity) BEAVA ([11]; 125 g/ha): 50%; Post-Emergence Herbicidal Activity (Percentage Phytotoxicity) GLXMA ([12]; 8 g/ha): 50%; Post-Emergence Herbicidal Activity (Percentage Phytotoxicity) GLXMA ([12]; 30 g/ha): 60%; Post-Emergence Herbicidal Activity (Percentage Phytotoxicity) GLXMA ([12]; 125 g/ha): 70%
